“And” between values parts separate entries of the source, which are not always exact repeats. Equal entries are not always repeated. Where two headings read alike, the source gives them in different places.
Key:
[1] = system: B. microti ATCC PRA-99 strain; test: Growth inhibition of B. microti in vitro; type: cell-based, Babesia microti; conditions: for IC50: Babesia microti
Procedure: (§1) Three BALB/c mice were intraperitoneally injected with 1 x 10^7 parasites (100 μl fresh blood), and their blood was collected from the tail when parasitemia reached ~60% at day 7 post-infection. The growth inhibition assay of B. microti in vitro was performed by incubating freshly isolated infected mouse red blood cells (RBCs) with varying concentrations of the drugs. Briefly, […] infected mouse RBCs was diluted with 5 μl non-infected mouse RBCs and 10 μl non-infected human RBCs to achieve ~3% parasitemia in a total of 40 μl and suspended in 110 μl of a growth medium (20% bovine serum and 80% medium HL20) containing the indicated concentrations of drugs (50, 100, and 250 μM). The cultures were maintained at 37°C for 72 h in a gas mixture of 2% O2, 5% CO2, and 93% N2. Two naphthalene-based compounds DBHCA and DHNA were prepared as 100 mM stock solutions in DMSO and further diluted with growth medium. Each concentration of the compounds was tested in triplicate, while three wells received a drug-free culture medium as a control. 10 μM diminazene aceturate (DA) was selected as a positive control. Parasitemia was determined at 72 h post-treatment by enumerating a total of at least 1,000 RBCs in a Giemsa-stained thin smear. Differences in the percent parasitemia were statistically analyzed using one-way ANOVA analysis, and the IC50 values were calculated manually for obtaining more reliable data (Käber method). The hemolysis of DBHCA and DHNA against B. microti-free erythrocytes was monitored by cell counting chamber at 72 h post-treatment. All the experiments were separately repeated three times.

rBmLDH = rBmLDH (Babesia microti, UniProt I7J7V6); test: Surface plasmon resonance binding kinetics (Biacore T200); conditions: for koff: read-out: k d
Sequence of rBmLDH (I7J7V6 entry or part of it): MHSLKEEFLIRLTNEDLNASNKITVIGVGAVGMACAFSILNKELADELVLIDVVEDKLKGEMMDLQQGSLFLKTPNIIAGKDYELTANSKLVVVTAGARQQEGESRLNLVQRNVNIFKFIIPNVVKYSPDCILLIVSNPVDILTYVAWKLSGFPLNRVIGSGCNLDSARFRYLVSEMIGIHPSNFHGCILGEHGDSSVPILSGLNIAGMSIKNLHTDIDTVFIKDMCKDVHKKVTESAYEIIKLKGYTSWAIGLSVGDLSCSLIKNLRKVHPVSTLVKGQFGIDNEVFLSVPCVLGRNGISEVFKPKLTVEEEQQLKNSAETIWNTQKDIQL
Procedure: The binding properties of the rBmLDH against DBHCA and DHNA were measured separately by SPR experiment with a Biacore T200 system (GE Healthcare, Uppsala, Sweden). Briefly, a sensor chip CM5 was put into a Biacore T200 system and washed with the running buffer (PBST+0.5% DMSO, pH7.5). The CM5 chip was activated by injecting the mixture of 0.1 M N-hydroxysuccinimide (NHS) and 0.4 M 1-ethyl-3-(3-dimethylaminopropyl) carbodiimide hydrochloride (EDC) (1:1, v/v) at a flow rate of 10 μl·min^−1 for 20 min. Then, the rBmLDH diluted to 10 μg·ml^−1 with 10 mM sodium acetate buffer (pH 4.0, 4.5, 5.0, and 5.5) was covalently immobilized on the CM5 chip at a flow rate of 10 μl·min^−1 until the immobilization level of BmLDH reached 2,100 resonance units (RU). Ethanolamine solution was injected to block the remaining unreacted esters. Flow cell 1 was activated and blocked as the reference surface, while flow cell 2 served as the experimental surface. The 100 mM stocks of the two small molecule compounds were further diluted with PBST into 500, 250, 125, 62.5, 31.25, and 15.625 μM. The surface of CM5 sensor chip was fully regenerated using 10 mM glycine pH2.5 at a flow rate of 30 μl min^−1 for 30 s. The SPR kinetic experiments were performed three times and the values were presented as the mean ± SD of three independent experiments.
For binding kinetic assays, standard solutions of two naphthalene-based compounds (DBHCA and DHNA) at different concentrations were tested and the data were fitted with a 1:1 binding kinetic model.

[2] = system: B. microti-free erythrocytes; test: Hemolysis of B. microti-free erythrocytes; type: cell-based; conditions: drug levels up to 250 µM, 72 h post-treatment
Procedure: as §1, with “Each concentration of the compounds was tested in triplicate, while three wells received a drug-free culture medium as a control. 10 μM diminazene aceturate (DA) was selected as a positive control.” left out, “All the experiments were separately repeated three times.” left out

[3] = target: recombinant BmLDH (rBmLDH) (Babesia microti, UniProt I7J7V6); test: biochemical; type: biochemical; conditions: for selectivity over human LDH: rBmLDH vs human LDH
Sequence of recombinant BmLDH (rBmLDH) (I7J7V6 entry or part of it): as above
Procedure: The enzyme activity of rBmLDH was analyzed using Lactate Dehydrogenase Activity Assay Kit (Sigma-Aldrich, Shanghai, China) according to the manufacturer’s instruction. Briefly, the enzymatic activity of BmLDH was detected by catalyzing the conversion of lactate to pyruvate, with concomitant reduction of NAD^+ to NADH. The coupled reaction was followed by measuring absorbance at 450 nm and at 37°C. Three naphthalene-based compounds [2,6-naphthalenedicarboxylic acid (NDCA), 1,6-dibromo-2-hydroxynapthalene 3-carboxylic acid (DBHCA), and 3,5-dihydroxy 2-napthoic acid (DHNA)] were purchased from Sigma-Aldrich (Shanghai, China) with 99% purity for NDCA and 97% purity for DBHCA and DHNA. In the inhibitory analysis, three naphthalene-based compounds were prepared as 100 mM stock solution in 100% dimethylsulfoxide (DMSO) ( Table 2 ).
The half-maximal inhibitory concentration (IC50) values were determined in the presence of various concentrations of the three naphthalene-based compounds. […] The absorbance Tinitia and Tfinal (5 min) was measured at 450 nm. XY graphs were drawn by linear regression and error bars represent means ± SD of three independent experiments.

Vero cells = test: Cytotoxicity test by MTT method; type: cell-based, African green monkey; conditions: for SI (selectivity index): between B. microti and Vero cells
Procedure: (§2) Mycoplasma-free Vero cell line (ATCC-CCL-81, immortalized cells) was preserved in liquid nitrogen with the additive of DMSO in the State Key Laboratory of Agricultural Microbiology, Huazhong Agricultural University, China. […] After adding 10 µl MTT (5 mg/ml in medium) into each test well, the plate was further incubated for another 2 h, followed by removing the culture from the incubator and discarding the medium. […] The plate was gently mixed on a gyratory shaker for 10 min and the absorbances were measured at a wavelength of 570 nm using a microplate reader (BioTek, Vermont, USA). The background absorbances of the multi-well plate at 690 nm were subtracted from the 570 nm measurement. […] The CC50 values were calculated using GraphPad Prism 5 (San Diego, CA, USA), and all the cytotoxicity tests were performed three times.

[4] = Cytotoxicity test by MTT method; type: cell-based, African green monkey; conditions: African green monkey, Vero cells (ATCC-CCL-81), MTT, 72 h
Procedure: as §2

[5] = target: human lactate dehydrogenase (HmLDH); design: method as in Conners et al., 2005; conditions: ref Conners et al., 2005; cited from earlier work
[6] = system: Plasmodium falciparum lactate dehydrogenase (PfLDH); conditions: 2005, cited from earlier work; for IC50: ref Conners et al.
[7] = system: glyceraldehyde-3-phosphate dehydrogenase; design: method as in Deck et al., 1998; Rellinger et al., 2017; conditions: even at high concentrations; ref Deck et al., 1998; Rellinger et al., 2017; cited from earlier work
human LDH-B = system: human LDH-B; design: method as in Deck et al., 1998; Rellinger et al., 2017; conditions: even at high concentrations; ref Deck et al., 1998; Rellinger et al., 2017; cited from earlier work
LDH-B4 = conditions: mammalian LDHs, competitive with NADH binding; read-out: K i for LDH-B4; cited from earlier work
BbLDH = conditions: read-out: K i against BbLDH; ref Bork et al., 2004; cited from earlier work
LDH-A4 = conditions: mammalian LDHs, competitive with NADH binding; read-out: K i for LDH-A4; cited from earlier work
Plasmodium falciparum = system: Plasmodium falciparum; design: method as in Vivas et al., 2005; conditions: ref Vivas et al., 2005; read-out: IC50 against growth of P. falciparum in vitro; cited from earlier work
BmLDH = target: BmLDH; design: method as in Yu et al., 2019; conditions: ref Yu et al., 2019; read-out: K i against BmLDH; cited from earlier work
LDH-C4 = conditions: mammalian LDHs, competitive with NADH binding; read-out: K i for LDH-C4; cited from earlier work
B. microti = system: B. microti; design: method as in Yu et al., 2019; conditions: ref Yu et al., 2019; read-out: IC50 against B. microti in vitro; cited from earlier work
Babesia bovis = system: Babesia bovis; design: method as in Bork et al., 2004; conditions: ref Bork et al., 2004; read-out: IC50 in vitro against B. bovis; cited from earlier work
[8] = 72 h post-treatment, Giemsa smear parasitemia, read-out: IC50 against growth of B. microti in vitro
[9] = asexual blood stage, 72 h, read-out: PRA-99 IC50
[10] = SPR, 1:1 binding model, rBmLDH immobilized on CM5
[11] = rBmLDH 100 ng, lactate to pyruvate, absorbance 450 nm, 37°C, read-out: BmLDH IC50

SMILES: O=C(O)c1cc2cc(Br)ccc2c(Br)c1O [DBHCA, 1,6-Dibromo-2-hydroxynapthalene 3-carboxylic acid]
- IC50 [1, 8]: 84.8 µM
- IC50 [1, 9]: 85 µM
- Kd (rBmLDH): 0.0399 µM
- kon (rBmLDH; SPR, 1:1 binding model, rBmLDH immobilized on CM5, read-out: k a): 37700 M⁻¹ s⁻¹
- koff (rBmLDH; [10]): 0.0015 s⁻¹
- cellular hemolysis [2]: no cellular hemolysis
- IC50 ([3]; BmLDH IC50, rBmLDH 100 ng, lactate to pyruvate, absorbance 450 nm, 37°C): 54 µM
- IC50 ([3]; IC50 against BmLDH activity, rBmLDH, mean ± SD of three experiments): 53.9 ± 13.3 µM
- selectivity over human LDH [3]: ~ 109 fold
- SI (selectivity index) (Vero cells): 2.6
- CC50 at 72 h ([4]; read-out: CC50 Vero): 217 µM
- CC50 at 72 h ([4]; read-out: CC50 in Vero cells): 216 ± 18 µM
- IC50 [5]: 5900 µM
- IC50 [6]: 310 µM

SMILES: CC(=O)NCC(=O)O.CC(=O)NCC(=O)O.N=C(N)c1ccc(N=NNc2ccc(C(=N)N)cc2)cc1 [DA, diminazene aceturate, reference compound]
- inhibition of growth of the parasite ([1]; positive control at 10 μM, 72 h): ~ 75.54%

SMILES: O=C(O)c1ccc2cc(C(=O)O)ccc2c1 [NDCA, 2,6-Naphthalenedicarboxylic acid]
- inhibitory effect on the BmLDH activity ([3]; even at the high concentration of 500 μM): no inhibitory effect
- IC50 [3, 11]: > 500 µM
- IC50 [5]: 1400 µM
- IC50 [6]: 5100 µM

SMILES: CCCc1c(O)c(O)c(C(=O)O)c2cc(Cc3ccccc3)c(C)cc12 [FX11]
- inhibition of glyceraldehyde-3-phosphate dehydrogenase [7]: not
- inhibition of human LDH-B (human LDH-B): not

SMILES: COc1cccc2c1C(=O)c1c(O)c3c(c(O)c1C2=O)C[C@@](O)(C(=O)CO)C[C@@H]3O[C@H]1C[C@H](N)[C@H](O)[C@H](C)O1 [doxorubicin, reference compound]
- inhibition at 3 µM (Vero cells; Chlorocebus sabaeus, Vero, positive control at 3 µM, read-out: inhibition of growth of Vero cells): ~95%

SMILES: Cc1cc2c(C(C)C)c(O)c(O)c(C=O)c2c(O)c1-c1c(C)cc2c(C(C)C)c(O)c(O)c(C=O)c2c1O [gossypol]
- Ki (LDH-B4): 1.4 µM
- Ki (BbLDH): 0.085 µM
- Ki (LDH-A4): 1.9 µM
- IC50 (Plasmodium falciparum): 15.3 µM
- Ki (BmLDH): 0.67 µM
- Ki (LDH-C4): 4.2 µM
- inhibition at 0.7 µM ([3]; read-out: inhibition of the catalytic activity of BmLDH): ~100%
- IC50 (B. microti): 7.07 µM
- IC50 (Babesia bovis): 50 µM
- Ki ([6]; competitive, ref Vivas et al., read-out: K i against PfLDH): 0.7 µM

SMILES: O=C(O)c1cc2cccc(O)c2cc1O [DHNA, 3,5-Dihydroxy 2-napthoic acid]
- IC50 [1, 8]: 85.7 µM
- IC50 [1, 9]: 86 µM
- k a (rBmLDH; [10]): 20.49 1/Ms and 20.49 ± 4.18 × 10^−1 1/Ms
- Kd (rBmLDH; SPR, 1:1 binding model, rBmLDH immobilized on CM5, read-out: K D): 37.7 µM
- koff (rBmLDH; [10]): 0.000772 s⁻¹
- cellular hemolysis [2]: no cellular hemolysis
- inhibition at 60 µM ([3]; at ~60 μM, read-out: rBmLDH activity inhibited): 100%
- IC50 [3, 11]: 30 µM
- selectivity over PfLDH ([3]; rBmLDH vs PfLDH): ~ 57 fold
- selectivity over human LDH [3]: ~ 5,000 fold
- IC50 ([3]; rBmLDH, mean ± SD of three experiments, read-out: IC50 against BmLDH activity): 30.2 ± 8.49 µM
- SI (selectivity index) (Vero cells): 22.1
- CC50 at 72 h ([4]; read-out: CC50 Vero): 1900 µM
- IC50 [6]: 1700 µM
